In publication PMC5811991 (Biochemistry, 2008):

Target: GDP-perosamine synthase (Caulobacter vibrioides, UniProt Q9A9H3)
Assay: HPLC assay of substrate decrease
Assay type: biochemical
Conditions: substrate inhibition, competitive versus glutamate (ping-pong, Eq. 1); 100 μM PLP, 20 mM HEPES pH 7.5, 110 mM NaCl, 10 mM MgCl2, room temperature

GDP-perosamine synthase, sequence (Q9A9H3 whole entry): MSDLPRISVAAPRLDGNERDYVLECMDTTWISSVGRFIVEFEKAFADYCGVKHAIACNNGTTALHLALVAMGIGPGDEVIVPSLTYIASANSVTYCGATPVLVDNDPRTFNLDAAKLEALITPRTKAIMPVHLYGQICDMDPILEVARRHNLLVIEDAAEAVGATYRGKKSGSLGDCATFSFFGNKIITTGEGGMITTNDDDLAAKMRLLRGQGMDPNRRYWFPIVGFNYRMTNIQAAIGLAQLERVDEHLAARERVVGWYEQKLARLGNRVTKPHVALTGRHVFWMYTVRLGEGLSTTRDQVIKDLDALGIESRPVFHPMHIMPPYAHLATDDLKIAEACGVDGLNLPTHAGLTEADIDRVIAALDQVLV

C[C@H]1O[C@H](OP(=O)(O)OP(=O)(O)OC[C@H]2O[C@@H](n3cnc4c(=O)[nH]c(N)nc43)[C@H](O)[C@@H]2O)[C@@H](O)[C@@H](O)C1=O [GDP-4-keto-6-deoxymannose]
Ki sugar: 0.089 ± 0.034 mM
